# Target: mTOR/GbL/Raptor (mTORC1) (Homo sapiens, UniProt P42345)
# Experiment: mTOR/GbL/Raptor (mTORC1) ELISA assay
# Type: biochemical
# Conditions: phosphorylation of 4E-BP1; 0.2 nM mTORC1, 10 μM ATP; read-out: IC50 in this assay (mTORC1 ELISA)
# How it was run: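 Human mTORC1 (0.2 nM) phosphorylated 50 nM His-tagged 4E-BP1 with 10 µM ATP in HEPES pH 7.2 containing 10 mM MnCl2, 120 min at ambient temperature. Substrate was captured on Ni-chelate plates; phospho-4E-BP1 was detected by primary antibody and HRP secondary with luminescence.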
row,Compound,IC50
1,"c1ccc2c(N3CCOc4ccc(-c5cn[nH]c5)cc4C3)ccnc2c1 [Example 137, 7-(1H-pyrazol-4-yl)-4-quinolin-4-yl-2,3,4,5-tetrahydro-1,4-benzoxazepine]",1000 to 2000 nM
2,"c1ccc2c(N3CCOc4ccc(-c5ccc6[nH]ncc6c5)cc4C3)ccnc2c1 [Example 138, 7-(1H-indazol-5-yl)-4-quinolin-4-yl-2,3,4,5-tetrahydro-1,4-benzoxazepine]",≥ 2000 nM
3,"Cc1ncnc(N2CCOc3ccc(-c4cncs4)cc3C2)c1Cc1ccc(F)cc1 [Example 150, 4-{5-[(4-fluorrophenyl)methyl]-6-methylpyrimidin-4-yl}-7-(1,3-thiazol-5-yl)-2,3,4,5-tetrahydro-1,4-benzoxazepine]",50 to 250 nM
4,"Cc1ncnc(N2CCOc3ccc(-c4cnc(N)cn4)cc3C2)c1Cc1ccc(F)cc1 [Example 151, 5-(4-{5-[(4-fluorophenyl)methyl]-6-methylpyrimidin-4-yl}-2,3,4,5-tetrahydro-1,4-benzoxazepin-7-yl)pyrazin-2-amine]",50 to 250 nM
5,"Cc1ncc(-c2ccc3c(c2)CN(c2ncnc4c2CCC(C)(C)C4)CCO3)s1 [Example 152, 4-(7,7-dimethyl-5,6,7,8-tetrahydroquinoazlin-4-yl)-7-(2-methyl-1,3-thiazol-5-yl)-2,3,4,5-tetrahydro-1,4-benzoxazepine]",250 to 1000 nM
6,"Cc1nc(N)sc1-c1ccc2c(c1)CN(c1ncnc(C)c1Cc1ccc(F)cc1)CCO2 [Example 154, 5-(4-{5-[(4-fluorophenyl)methyl]-6-methylpyrimidin-4-yl}-2,3,4,5-tetrahydro-1,4-benzoxazepin-7-yl)-4-methyl-1,3-thiazol-2-amine]",50 to 250 nM
7,"CNC(=O)c1ccc(-c2ccc3c(c2)CN(c2ncnc(C)c2Cc2ccc(F)cc2)CCO3)nc1 [Example 155, 6-(4-{5-[(4-fluorophenyl)methyl]-6-methylpyrimidin-4-yl}-2,3,4,5-tetrahydro-1,4-benzoxazepin-7-yl)-N-methylpyridine-3-carboxamide]",250 to 1000 nM
8,"COc1cc2c(N3CCOc4ccc(-c5ccc6nc(C)[nH]c6c5)cc4C3)ncnc2cc1O [Example 157, 4-[7-(2-methyl-1H-benzimidazol-6-yl)-2,3-dihydro-1,4-benzoxazepin-4(5H)-yl]-6-(methyloxy)quinazolin-7-ol]",250 to 1000 nM
9,"CCOc1ccc2ncnc(N3CCOc4ccc(-c5ccc6nc(C)[nH]c6c5)cc4C3)c2c1 [Example 159, 4-[6-(ethyloxy)quinazolin-4-yl]-7-(2-methyl-1H-benzimidazol-6-yl)-2,3,4,5-tetrahydro-1,4-benzoxazepine]",50 to 250 nM
10,"Cc1nc2ccc(-c3ccc4c(c3)CN(c3ncnc5ccc(OCC#N)cc35)CCO4)cc2[nH]1 [Example 160, ({4-[7-(2-methyl-1H-benzimidazol-6-yl)-2,3-dihydro-1,4-benzoxazepin-4(5H)-yl]quinazolin-6-yl}oxy)acetonitrile]",250 to 1000 nM
11,"Cc1nc2ccc(-c3ccc4c(c3)CN(c3ncnc5ccc(OCCCN(C)C)cc35)CCO4)cc2[nH]1 [Example 161, N,N-dimethyl-3-({4-[7-(2-methyl-1H-benzimidazol-6-yl)-2,3-dihydro-1,4-benzoxazepin-4(5H)-yl]quinazolin-6-yl}oxy)propan-1-amine]",1000 to 2000 nM
12,"CCCOc1ccc2ncnc(N3CCOc4ccc(-c5ccc6nc(C)[nH]c6c5)cc4C3)c2c1 [Example 162, 7-(2-methyl-1H-benzimidazol-6-yl)-4-[6-(propyloxy)quinazolin-4-yl]-2,3,4,5-tetrahydro-1,4-benzoxazepine]",250 to 1000 nM
13,"COCCOc1ccc2ncnc(N3CCOc4ccc(-c5ccc6nc(C)[nH]c6c5)cc4C3)c2c1 [Example 163, 7-(2-methyl-1H-benzimidazol-6-yl)-4-(6-{[2-(methyloxy)ethyl]oxy}quinazolin-4-yl)-2,3,4,5-tetrahydro-1,4-benzoxazepine]",≥ 2000 nM
14,"COc1c(O)ccc2c(N3CCOc4ccc(-c5ccc6nc(C)[nH]c6c5)cc4C3)ncnc12 [Example 164, 4-[7-(2-methyl-1H-benzimidazol-6-yl)-2,3-dihydro-1,4-benzoxazepin-4-(5H)-yl]-8-(methyloxy)quinazolin-7-ol]",250 to 1000 nM
15,"COc1c(OCCN(C)C)ccc2c(N3CCOc4ccc(-c5ccc6nc(C)[nH]c6c5)cc4C3)ncnc12 [Example 165, N,N-dimethyl-2-({4-[7-(2-methyl-1H-benzimidazol-6-yl)-2,3-dihydro-1,4-benzoxazepin-4(5H)-yl]-8-(methyloxy)quinazolin-7-yl}oxy)ethanamine]",≥ 2000 nM
16,"COc1c(OCC(C)C)ccc2c(N3CCOc4ccc(-c5ccc6nc(C)[nH]c6c5)cc4C3)ncnc12 [Example 166, 7-(2-methyl-1H-benzimidazol-6-yl)-4-{8-(methyloxy)-7-[(2-methylpropyl)oxy]quinazolin-4-yl}-2,3,4,5-tetrahydro-1,4-benzoxazepine]",250 to 1000 nM
17,"COc1c(OCc2ccc3ccccc3n2)ccc2c(N3CCOc4ccc(-c5ccc6nc(C)[nH]c6c5)cc4C3)ncnc12 [Example 167, 7-(2-methyl-1H-benzimidazol-6-yl)-4-{8-(methyloxy)-7-[(quinolin-2-ylmethyl)oxy]quinazolin-4-yl}-2,3,4,5-tetrahydro-1,4-benzoxazepine]",≥ 2000 nM
18,"COc1c(OCC2CC2)ccc2c(N3CCOc4ccc(-c5ccc6nc(C)[nH]c6c5)cc4C3)ncnc12 [Example 168, 4-{7-[(cyclopropylmethyl)oxy]-8-(methyloxy)quinazolin-4-yl}-7-(2-methyl-1H-benzimidazol-6-yl)-2,3,4,5-tetrahydro-1,4-benzoxazepine]",250 to 1000 nM
19,"Cc1nc2ncc(-c3ccc4c(c3)CN(c3ncncc3C)CCO4)cc2[nH]1 [Example 169, 7-(2-methyl-1H-imidazo[4,5-b]pyridin-6-yl)-4-(5-methylpyrimidin-4-yl)-2,3,4,5-tetrahydro-1,4-benzoxazepine]",250 to 1000 nM

# Second part, the compound after the results:
row,IC50,Compound
1,10 to 50 nM,"Cc1ncnc(N2CCOc3ccc(-c4ccc5nc(N)sc5n4)cc3C2)c1Cc1ccc(F)cc1 [Example 140, 5-(4-{5-[(4-fluorophenyl)methyl]-6-methylpyrimidin-4-yl}-2,3,4,5-tetrahydro-1,4-benzoxazepin-7-yl)[1,3]thiazolo[5,4-b]pyridin-2-amine]"
2,10 to 50 nM,"Cc1ncnc(N2CCOc3ccc(-c4ccc5nc(N)nn5c4)cc3C2)c1Cc1ccc(F)cc1 [Example 141, 6-(4-{5-[(4-fluorophenyl)methyl]-6-methylpyrimidin-4-yl}-2,3,4,5-tetrahydro-1,4-benzoxazepin-7-yl)[1,2,4]triazolo[1,5-a]pyridin-2-amine]"
3,≤ 10 nM,"Cc1ncnc(N2CCOc3ccc(-c4cnc5nc[nH]c5c4)cc3C2)c1Cc1ccc(F)cc1 [Example 142, 4-{5-[(4-fluorophenyl)methyl]-6-methylpyrimidin-4-yl}-7-(1H-imidazo[4,5-b]pyridin-6-yl)-2,3,4,5-tetrahydro-1,4-benzoxazepine]"
4,10 to 50 nM,"Cc1ncnc(N2CCOc3ccc(-c4ccc5nc(N)ncc5c4)cc3C2)c1Cc1ccc(F)cc1 [Example 143, 6-(4-{5-[(4-fluorophenyl)methyl]-6-methylpyrimidin-4-yl}-2,3,4,5-tetrahydro-1,4-benzoxazepin-7-yl)quinazolin-2-amine]"
5,10 to 50 nM,"Cc1ncnc(N2CCOc3ccc(-c4cnc5nc(N)cn5c4)cc3C2)c1Cc1ccc(F)cc1 [Example 144, 6-(4-{5-[(4-fluorophenyl)methyl]-6-methylpyrimidin-4-yl}-2,3,4,5-tetrahydro-1,4-benzoxazepin-7-yl)imidazo[1,2-a]pyrimidin-2-amine]"
6,10 to 50 nM,"Cc1ncnc(N2CCOc3ccc(-c4ccc5nc(N)cn5c4)cc3C2)c1Cc1ccc(F)cc1 [Example 145, 6-(4-{5-[(4-fluorophenyl)methyl]-6-methylpyrimidin-4-yl}-2,3,4,5-tetrahydro-1,4-benzoxazepin-7-yl)imidazo[1,2-a]pyridin-2-amine]"
7,10 to 50 nM,"Cc1ncnc(N2CCOc3ccc(-c4ccn5nc(N)nc5c4)cc3C2)c1Cc1ccc(F)cc1 [Example 146, 7-(4-{5-[(4-fluorophenyl)methyl]-6-methylpyrimidin-4-yl}-2,3,4,5-tetrahydro-1,4-benzoxazepin-7-yl)[1,2,4]triazolo[1,5-a]pyridin-2-amine]"
8,≤ 10 nM,"Cc1ncnc(N2CCOc3ccc(-c4ccc5sc(N)nc5c4)cc3C2)c1Cc1ccc(F)cc1 [Example 148, 5-(4-{5-[(4-fluorophenyl)methyl]-6-methylpyrimidin-4-yl}-2,3,4,5-tetrahydro-1,4-benzoxazepin-7-yl)-1,3-benzothiazol-2-amine]"
9,50 to 250 nM,"Cc1ncnc(N2CCOc3ccc(-c4ccc(N)nn4)cc3C2)c1Cc1ccc(F)cc1 [Example 149, 6-(4-{5-[(4-fluorophenyl)methyl]-6-methylpyrimidin-4-yl}-2,3,4,5-tetrahydro-1,4-benzoxazepin-7-yl)pyridazin-3-amine]"
10,≤ 10 nM,"Cc1ncnc(N2CCOc3ccc(-c4cnc(N)nc4)cc3C2)c1Cc1ccc(F)cc1 [Example 153, 5-(4-{5-[(4-fluorophenyl)methyl]-6-methylpyrimidin-4-yl}-2,3,4,5-tetrahydro-1,4-benzoxazepin-7-yl)pyrimidin-2-amine]"
11,10 to 50 nM,"Cc1nc(N)sc1-c1ccc2c(c1)CN(c1ncnc3c1CCC(C)(C)C3)CCO2 [Example 156, 5-[4-(7,7-dimethyl-5,6,7,8-tetrahydroquinazolin-4-yl)-2,3,4,5-tetrahydro-1,4-benzoxazepin-7-yl]-4-methyl-1,3-thiazol-2-amine]"
12,10 to 50 nM,"Cc1nc2ccc(-c3ccc4c(c3)CN(c3ncnc5ccc(O)cc35)CCO4)cc2[nH]1 [Example 158, 4-[7-(2-methyl-1H-benzimidazol-6-yl)-2,3-dihydro-1,4-benzoxazepin-4(5H)-yl]quinazolin-6-ol]"
13,≤ 10 nM,"Cc1ncnc(N2CCOc3ccc(-c4ccc(C(N)=O)cc4)cc3C2)c1Cc1ccc(F)cc1 [Example 170, 4-(4-{5-[(4-fluorophenyl)methyl]-6-methylpyrimidin-4-yl}-2,3,4,5-tetrahydro-1,4-benzoxazepin-7-yl)benzamide]"
